Source: article PMC10689823, “Discovery of a Drug-like, Natural Product-Inspired DCAF11 Ligand Chemotype” (Nature Communications, 2023)

Target: BRD4S-TagBFP reporter (Homo sapiens, UniProt O60885)
Experiment: FACS-based CRISPR/Cas9 BRD4 protein stability screen
Conditions: Mageck_Gene level
Description: The virus containing supernatant was cleared of cellular debris by filtration through a 0.45-µm PES filter and used to transduce KBM7 BRD4-BFP reporter cells harboring a doxycycline inducible Cas9 allele at a multiplicity of infection (MOI) of 0.05 and 1,000-fold library representation. Library-transduced cells were selected with G418 (1 mg ml^−1, Gibco) for 14 days, expanded and Cas9 expression was induced with DOX (0.4 µg ml^−1, PanReac AppliChem).
Cells were washed with and stored in FACS buffer (PBS containing 5% FBS and 1 mM EDTA) at 4 °C overnight. The next day, cells were strained trough a 35 µm nylon mesh and sorted on a BD FACSAria™ Fusion (BD Biosciences) using a 85 µm nozzle. Aggregates, dead (ZombieNIR positive), Cas9-negative (GFP) and sgRNA library-negative (Thy1.1-APC) cells were excluded, and the remaining cells were sorted based on their BRD4-BFP and mCherry levels into BRD4^HIGH (10% of cells), BRD4^MID (30%) and BRD4^LOW (10%) fractions. For each sample, cells corresponding to at least 2,000-fold library representation were sorted per replicate.
Next-generation sequencing (NGS) libraries of sorted cell fractions were prepared as previously described[25]. In brief, genomic DNA was isolated by cell lysis (10 mM Tris-HCl, 150 mM NaCl, 10 mM EDTA, 0.1% SDS), proteinase K treatment (New England Biolabs) and DNAse-free RNAse digest (Thermo Fisher Scientific), followed by two rounds of phenol extraction and 2-propanol precipitation. Isolated genomic DNA was subjected to several freeze–thaw cycles before nested polymerase chain reaction (PCR) amplification of the sgRNA cassette.
Barcoded NGS libraries for each sorted population were generated using a two-step PCR protocol using AmpliTaq Gold (Invitrogen). The resulting PCR products were purified using Mag-Bind® TotalPure NGS beads (Omega Bio-tek) and amplified in a second PCR introducing the standard Illumina adapters. The final Illumina libraries were bead-purified, pooled and sequenced on a HiSeq 3500 platform (Illumina).
Screen analysis was performed as previously described[25]. Briefly, sequencing reads were quantified using the crispr-process-nf Nextflow workflow, available at https://github.com/ZuberLab/crispr-process-nf/tree/566f6d46bbcc2a3f49f51bbc96b9820f408ec4a3. For statistical analysis, we used the crispr-mageck-nf Nextflow workflow, available at https://github.com/ZuberLab/crispr-mageck-nf/tree/c75a90f670698bfa78bfd8be786d6e5d6d4fc455. To calculate gene-level enrichment, the sorted populations (BRD4^HIGH or BRD4^LOW) were compared to the BRD4^MID populations in MAGeCK (0.5.9)[46], using median normalized read counts.

Cc1sc2c(c1C)C(c1ccc(Cl)cc1)=NC(CC(=O)NCCOCCOCCOCCOc1c(Br)cc(C=C3C(=O)Nc4ccc(Br)cc43)cc1Br)c1nnc(C)n1-2 (centres unmarked) [Compound 10]
High_lfc (Gene DCAF1): 0.07
High_logP (Gene DCAF1): 0.4
Low_lfc (Gene DCAF1): 0.08
Low_logP (Gene DCAF1): 0.47
High_lfc (Gene DCAF4): 0.04
High_logP (Gene DCAF4): 0.26
Low_lfc (Gene DCAF4): 0.5
Low_logP (Gene DCAF4): 1.14
High_lfc (Gene DCAF5): -0.31
High_logP (Gene DCAF5): 0.03
Low_lfc (Gene DCAF5): -0.2
Low_logP (Gene DCAF5): 0.09
High_lfc (Gene DCAF6): -0.27
High_logP (Gene DCAF6): 0.06
Low_lfc (Gene DCAF6): 0.14
Low_logP (Gene DCAF6): 0.62
High_lfc (Gene DCAF7): -0.06
High_logP (Gene DCAF7): 0.19
Low_lfc (Gene DCAF7): 0.05
Low_logP (Gene DCAF7): 0.29
High_lfc (Gene DCAF8): -0.08
High_logP (Gene DCAF8): 0.19
Low_lfc (Gene DCAF8): 0.22
Low_logP (Gene DCAF8): 0.46
High_lfc (Gene DCAF12): -0.19
High_logP (Gene DCAF12): 0
Low_lfc (Gene DCAF12): -0.38
Low_logP (Gene DCAF12): 0
High_lfc (Gene DCAF13): -0.32
High_logP (Gene DCAF13): 0.14
Low_lfc (Gene DCAF13): -0.17
Low_logP (Gene DCAF13): 0.23
High_lfc (Gene DCAF15): 0.02
High_logP (Gene DCAF15): 0.29
Low_lfc (Gene DCAF15): 0.34
High_lfc (Gene DCAF16): 0.41
High_logP (Gene DCAF16): 1.29
Low_lfc (Gene DCAF16): 0.15
Low_logP (Gene DCAF16): 0.08
High_lfc (Gene DCAF17): -0.4
High_logP (Gene DCAF17): 0.08
Low_lfc (Gene DCAF17): -0.25
Low_logP (Gene DCAF17): 0.08
High_lfc (Gene DCUN1D1): -0.16
High_logP (Gene DCUN1D1): 0.04
Low_lfc (Gene DCUN1D1): -0.14
Low_logP (Gene DCUN1D1): 0.41
High_lfc (Gene DCUN1D2): -0.24
High_logP (Gene DCUN1D2): 0.01
Low_lfc (Gene DCUN1D2): 0.34
Low_logP (Gene DCUN1D2): 0.85
High_lfc (Gene DCUN1D3): 0.11
High_logP (Gene DCUN1D3): 0.22
Low_lfc (Gene DCUN1D3): 0.24
Low_logP (Gene DCUN1D3): 1.2
High_lfc (Gene DCUN1D4): -0.01
High_logP (Gene DCUN1D4): 0.07
Low_lfc (Gene DCUN1D4): 0.03
Low_logP (Gene DCUN1D4): 0.28
High_lfc (Gene DCUN1D5): 0.22
High_logP (Gene DCUN1D5): 0.38
Low_lfc (Gene DCUN1D5): -0.23
Low_logP (Gene DCUN1D5): 0.04
High_lfc (Gene DDA1): 0.21
High_logP (Gene DDA1): 0.55
Low_lfc (Gene DDA1): -0.07
Low_logP (Gene DDA1): 0.09
High_lfc (Gene DDB1): 1.6
Low_lfc (Gene DDB1): -0.07
Low_logP (Gene DDB1): 0.14
High_lfc (Gene DDB2): -0.17
High_logP (Gene DDB2): 0.1
Low_lfc (Gene DDB2): 0.02
Low_logP (Gene DDB2): 0.41
High_lfc (Gene DET1): 0.13
High_logP (Gene DET1): 0.2
Low_lfc (Gene DET1): 0.1
Low_logP (Gene DET1): 0.55
High_lfc (Gene DHX15): 0.88
High_logP (Gene DHX15): 3.08
Low_lfc (Gene DHX15): 0.33
Low_logP (Gene DHX15): 0.15
High_lfc (Gene DTL): -0.32
High_logP (Gene DTL): 0.12
Low_lfc (Gene DTL): 0.6
Low_logP (Gene DTL): 1.9
High_lfc (Gene ECT2L): 0.08
High_logP (Gene ECT2L): 0.35
Low_lfc (Gene ECT2L): 0.18
Low_logP (Gene ECT2L): 0.73
High_lfc (Gene EED): -0.14
High_logP (Gene EED): 0.1
Low_lfc (Gene EED): -0.33
Low_logP (Gene EED): 0.06
High_lfc (Gene EIF4A1): -0.23
High_logP (Gene EIF4A1): 0.17
Low_lfc (Gene EIF4A1): 0.22
Low_logP (Gene EIF4A1): 0.27
High_lfc (Gene EIF4A3): -0.5
High_logP (Gene EIF4A3): 0.12
Low_lfc (Gene EIF4A3): 0.83
Low_logP (Gene EIF4A3): 3.36
High_lfc (Gene ELOA2): 0.27
High_logP (Gene ELOA2): 1.5
Low_lfc (Gene ELOA2): -0.21
Low_logP (Gene ELOA2): 0.02
High_lfc (Gene ELOA3): -0.14
High_logP (Gene ELOA3): 0.04
Low_lfc (Gene ELOA3): -0.68
Low_logP (Gene ELOA3): 0
High_lfc (Gene ELOA3D): -0.17
High_logP (Gene ELOA3D): 0.16
Low_lfc (Gene ELOA3D): -0.44
Low_logP (Gene ELOA3D): 0.05
High_lfc (Gene ELOA): 0.14
High_logP (Gene ELOA): 0.38
Low_lfc (Gene ELOA): 0.01
Low_logP (Gene ELOA): 0.08
High_lfc (Gene ELOB): 0.32
High_logP (Gene ELOB): 1.07
Low_lfc (Gene ELOB): 0.26
Low_logP (Gene ELOB): 0.54
High_lfc (Gene ELOC): 0.2
High_logP (Gene ELOC): 0.44
Low_lfc (Gene ELOC): 0.2
Low_logP (Gene ELOC): 0.9
High_lfc (Gene ENC1): -0.31
High_logP (Gene ENC1): 0
Low_lfc (Gene ENC1): -0.06
Low_logP (Gene ENC1): 0.22
High_lfc (Gene EPHA4): -0.08
High_logP (Gene EPHA4): 0.25
Low_lfc (Gene EPHA4): -0.27
Low_logP (Gene EPHA4): 0.02
High_lfc (Gene ERCC8): -0.71
High_logP (Gene ERCC8): 0.04
Low_lfc (Gene ERCC8): -0.42
Low_logP (Gene ERCC8): 0.02
High_lfc (Gene ESCO1): 0.09
High_logP (Gene ESCO1): 0.53
Low_lfc (Gene ESCO1): -0.29
Low_logP (Gene ESCO1): 0.05
High_lfc (Gene FAM9A): -0.13
High_logP (Gene FAM9A): 0.02
Low_lfc (Gene FAM9A): -0.08
Low_logP (Gene FAM9A): 0.64
High_lfc (Gene FBXL2): -0.04
High_logP (Gene FBXL2): 0.25
Low_lfc (Gene FBXL2): -0.25
Low_logP (Gene FBXL2): 0.03
High_lfc (Gene FBXL3): -0.55
High_logP (Gene FBXL3): 0
Low_lfc (Gene FBXL3): 0
Low_logP (Gene FBXL3): 0.15
High_lfc (Gene FBXL4): -0.13
High_logP (Gene FBXL4): 0.04
Low_lfc (Gene FBXL4): 0.11
Low_logP (Gene FBXL4): 0.32
High_lfc (Gene FBXL5): -0.03
High_logP (Gene FBXL5): 0.1
Low_lfc (Gene FBXL5): -0.22
Low_logP (Gene FBXL5): 0.05
High_lfc (Gene FBXL6): -0.15
High_logP (Gene FBXL6): 0.09
Low_lfc (Gene FBXL6): -0.18
Low_logP (Gene FBXL6): 0.14
High_lfc (Gene FBXL7): -0.1
High_logP (Gene FBXL7): 0.12
Low_lfc (Gene FBXL7): 0.04
Low_logP (Gene FBXL7): 0.13
High_lfc (Gene FBXL8): -0.02
High_logP (Gene FBXL8): 0.08
Low_lfc (Gene FBXL8): -0.1
Low_logP (Gene FBXL8): 0.23
High_lfc (Gene FBXL12): -0.02
High_logP (Gene FBXL12): 0.03
Low_lfc (Gene FBXL12): 0.09
Low_logP (Gene FBXL12): 0.2
High_lfc (Gene FBXL13): 0.02
High_logP (Gene FBXL13): 0.26
Low_lfc (Gene FBXL13): 0.01
Low_logP (Gene FBXL13): 0.21
High_lfc (Gene FBXL14): -0.22
High_logP (Gene FBXL14): 0.01
Low_lfc (Gene FBXL14): -0.05
Low_logP (Gene FBXL14): 0.13
High_lfc (Gene FBXL15): 0.13
High_logP (Gene FBXL15): 0.24
Low_lfc (Gene FBXL15): 0.16
Low_logP (Gene FBXL15): 0.21
High_lfc (Gene FBXL16): 0.23
High_logP (Gene FBXL16): 0.22
Low_lfc (Gene FBXL16): 0.16
Low_logP (Gene FBXL16): 0.37
High_lfc (Gene FBXL17): -0.14
High_logP (Gene FBXL17): 0.03
Low_lfc (Gene FBXL17): -0.04
Low_logP (Gene FBXL17): 0.45
High_lfc (Gene FBXL18): 0.05
High_logP (Gene FBXL18): 0.34
